Data set [1] deals with Cotton Aphid (Aphis gossypii). In words: Testing with Cotton Aphid (squash cotyledon foliar spray assay). It counts as in vivo. Conditions: foliar spray on squash, 3 days after application. The text has this: Yellow crookneck squash, Cucurbita pepo, is planted in 3 inch pots and placed in a greenhouse. Plants are watered regularly for 5 to 7 days until they reach the first emergent leaf stage. Plants are then trimmed to a single cotyledon. The squash assay consists of four squash plants per treatment with each plant cotyledon considered a replicate. Four additional plants are used as a control treatment (receiving solvent blank application only). Twenty-four hours prior to application, a leaf section of heavily infested squash plant from the aphid colony is placed onto each cotyledon, allowing a mixed population of A. gossypii nymphs and adults to migrate and infest the test plants. The pre-infested squash cotyledons are sprayed on both the upper and lower surfaces using an airbrush sprayer set at 2 psi. Formulation is an aqueous solution containing 5% solvent and 0.025% Tween 20 surfactant to yield concentrations of 50 ppm and 5 ppm of the test compound. Plants are sprayed to runoff. Tests are held in ambient laboratory temperatures for three days. At 3 days after application (DM) the number of live aphids are counted with the aid of a dissecting microscope. The number of live aphids in the treatment is compared to the number of live aphids in the solvent blank-treated controls and percent mortality is calculated.

Data set [2] deals with Cat Flea (Cntenocephalides felis). In words: Testing with Cat Flea (treated media assay). The note with it: 0.1 μg/g rate in media, infested with eggs, adults counted after five weeks vs acetone only. The class given is in vivo. As for the experimental part: Media is prepared by mixing 1 part dried bovine blood, 4 parts ground dog food pellets, and 95 parts clean sand. Compounds are dissolved in acetone and further diluted in acetone to yield the required range of concentrations. The acetone solutions are applied to measured amounts of media in small dishes. Final concentrations are expressed as micrograms of compound per gram of media. After the acetone has dried, the treated media is dispensed into small glass vials and infested with 5 to 10 cat flea (Cntenocephalides felis) eggs. The vials are loosely capped and held under controlled conditions for five weeks. Activity is assessed based on the average number of adult cat fleas present in the treated vials compared to the average number of adult cat fleas in the media treated with acetone only.

Consider `C/N=C(/C(=CN(C)C)[N+](=O)[O-])N(C)Cc1ccc(Cl)nc1` [Compound One], for which the percent mortality in data set [1] (5 parts per million) and in data set [1] (50 parts per million) was 100% in each case. The “control of cat fleas” value in data set [2] was 90%.
Take `C/N=C(/C(=CNc1ccccc1)[N+](=O)[O-])N(C)Cc1ccc(Cl)nc1` [Compound Three]: the percent mortality in data set [1] (5 parts per million) and in data set [1] (50 parts per million) was 100% in each case. For the same compound, the “control of cat fleas” value in data set [2] is on record as 38%.

Source of the values: patent US20060058359A1, “Compounds useful as pesticides” (priority 2002, published 2006).
